Patent publication US20150297600A1, “Method Of Achieving Increased Systemic Availability of Methotrexate” (Antares Pharma, Inc., priority 2014, published 2015)
Entries after “also recorded” stand apart in the source; their conditions may differ.

Tests used:
[1] = Text: An algorithm was developed to correlate a known oral dose of methotrexate to a jet injector dose. Table 1 illustrates the calculated correlation between oral doses and needle-assisted jet injector doses of methotrexate. The second column illustrates the precise subcutaneous dose calculated based on the algorithm, described in detail below. The third column represents the administrable dose, based on commercially available doses, closest in value to the precise calculated dose.
Based on the data set forth in table 1, a line equation of y=mx+b was developed to correlate an oral dose of methotrexate to an equivalent dose for use with a jet injector. In the present equation, illustrated by the graph shown in FIG. 1, the slope, m, was determined to be 0.6101 and a y-intercept, b, to be 2.9274. The correlation coefficient of the line, R^2, is 0.9594.

[2] = Multicenter three-way crossover study: oral vs subcutaneous (abdomen, thigh) methotrexate, blood drug levels for 24 hours and adverse events; assay type: in vivo, patients with adult RA
Procedure: A multicenter, three-way crossover study was conducted, wherein patients greater than or equal to 18 years old with adult RA undergoing treatment with MTX for three months or more were assigned to receive one of four dose levels of OTREXUP™ (subcutaneous methotrexate), 10 mg, 15 mg, 20 mg, and 25 mg weekly in a random sequence of three treatments: oral, subcutaneous into the abdomen and subcutaneous into the thigh. For 24 hours after the administration of each treatment, blood samples were collected to measure drug levels and injection sites were assessed.

With `CN(Cc1cnc2nc(N)nc(N)c2n1)c1ccc(C(=O)N[C@@H](CCC(=O)O)C(=O)O)cc1` [methotrexate] as the molecule, how does the “slope, m, of line equation correlating oral dose to equivalent jet injector dose” value [1] read?
The value was 0.6101.

And the “y-intercept, b, of line equation correlating oral dose to equivalent jet injector dose” value [1]?
Its value is 2.9274.

And the “plasma levels of oral dosed methotrexate, 20 mg or 25 mg doses versus 15 mg doses” value ([2]; oral)?
Its value is “no greater”.

What about the “systemic availability of methotrexate following oral dosing” value ([2]; oral, 10, 15, 20, 25 mg weekly, RA patients) of the same molecule?
Its value is “do not provide increased systemic availability; also recorded: plateaus at 15 mg and greater”.

What about the “association of higher systemic methotrexate exposure with adverse events” value ([2]; short term study) of the same molecule?
Its value is “not associated with increases in adverse events”.
